Laboratory results as given in ChEMBL document CHEMBL5696441 (Nat Chem Biol, 2011).

Columns and labels:
[1] = molecular target: Atypical kinase COQ8A, mitochondrial (Homo sapiens) (UniProt Q8NI60); test: Inhibition of ADCK3 (unknown origin) assessed as remaining activity at 1 uM by Kinome scan method relative to control
[2] = molecular target: Cyclin-dependent kinase 2 (Homo sapiens) (UniProt P24941); test: Inhibition of CDK2 (unknown origin) assessed as remaining activity at 1 uM by Kinome scan method relative to control
[3] = molecular target: Death-associated protein kinase 2 (Homo sapiens) (UniProt Q9UIK4); test: Inhibition of DAPK2 (unknown origin) assessed as remaining activity at 1 uM by Kinome scan method relative to control
Sequence of Death-associated protein kinase 2 (Homo sapiens) (Q9UIK4 whole entry, looked up): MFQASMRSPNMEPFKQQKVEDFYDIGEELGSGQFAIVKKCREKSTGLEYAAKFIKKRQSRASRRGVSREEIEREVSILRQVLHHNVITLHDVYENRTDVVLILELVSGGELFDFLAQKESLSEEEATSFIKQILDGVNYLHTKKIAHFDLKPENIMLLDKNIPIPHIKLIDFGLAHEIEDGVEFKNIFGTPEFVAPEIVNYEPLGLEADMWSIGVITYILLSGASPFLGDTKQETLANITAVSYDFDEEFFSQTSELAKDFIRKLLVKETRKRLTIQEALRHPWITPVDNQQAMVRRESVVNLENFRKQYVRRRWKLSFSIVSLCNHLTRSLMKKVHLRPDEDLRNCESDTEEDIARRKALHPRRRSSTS

[4] = molecular target: T1, Ephrin type-A receptor 3 (Homo sapiens) (UniProt P29320); test: Inhibition of EPHA3 (unknown origin) assessed as remaining activity at 1 uM by Kinome scan method relative to control
T1 sequence (whole entry): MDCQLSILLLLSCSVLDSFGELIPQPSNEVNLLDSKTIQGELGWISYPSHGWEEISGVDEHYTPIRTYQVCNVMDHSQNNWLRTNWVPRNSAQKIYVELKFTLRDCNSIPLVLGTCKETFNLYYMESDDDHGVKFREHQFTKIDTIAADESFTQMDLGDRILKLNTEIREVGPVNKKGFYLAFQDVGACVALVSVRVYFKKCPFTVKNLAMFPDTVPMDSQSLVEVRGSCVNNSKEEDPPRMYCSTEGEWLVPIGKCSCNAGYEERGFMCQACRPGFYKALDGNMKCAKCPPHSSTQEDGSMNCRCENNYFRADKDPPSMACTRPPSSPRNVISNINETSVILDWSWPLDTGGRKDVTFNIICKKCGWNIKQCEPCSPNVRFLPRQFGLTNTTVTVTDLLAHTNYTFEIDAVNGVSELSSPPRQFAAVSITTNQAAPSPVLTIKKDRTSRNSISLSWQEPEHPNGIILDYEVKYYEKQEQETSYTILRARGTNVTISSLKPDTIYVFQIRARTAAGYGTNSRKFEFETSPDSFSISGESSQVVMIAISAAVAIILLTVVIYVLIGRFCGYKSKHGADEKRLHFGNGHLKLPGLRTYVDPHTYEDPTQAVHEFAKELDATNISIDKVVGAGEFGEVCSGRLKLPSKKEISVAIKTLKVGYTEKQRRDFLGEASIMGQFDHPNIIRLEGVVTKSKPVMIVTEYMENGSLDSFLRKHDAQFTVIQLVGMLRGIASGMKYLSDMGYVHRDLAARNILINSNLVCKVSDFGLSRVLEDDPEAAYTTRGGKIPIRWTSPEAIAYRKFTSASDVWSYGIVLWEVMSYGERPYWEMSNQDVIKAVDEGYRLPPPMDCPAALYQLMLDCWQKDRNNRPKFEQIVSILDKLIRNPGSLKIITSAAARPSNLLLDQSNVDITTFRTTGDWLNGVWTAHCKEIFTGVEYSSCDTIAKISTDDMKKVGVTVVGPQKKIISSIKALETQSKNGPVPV

[5] = molecular target: Tyrosine-protein kinase HCK (Homo sapiens) (UniProt P08631); test: Inhibition of HCK (unknown origin) assessed as remaining activity at 1 uM by Kinome scan method relative to control
[6] = molecular target: Interleukin-1 receptor-associated kinase 3 (Homo sapiens) (UniProt Q9Y616); test: Inhibition of IRAK3 (unknown origin) assessed as remaining activity at 1 uM by Kinome scan method relative to control
Sequence of Interleukin-1 receptor-associated kinase 3 (Homo sapiens) (Q9Y616 whole entry): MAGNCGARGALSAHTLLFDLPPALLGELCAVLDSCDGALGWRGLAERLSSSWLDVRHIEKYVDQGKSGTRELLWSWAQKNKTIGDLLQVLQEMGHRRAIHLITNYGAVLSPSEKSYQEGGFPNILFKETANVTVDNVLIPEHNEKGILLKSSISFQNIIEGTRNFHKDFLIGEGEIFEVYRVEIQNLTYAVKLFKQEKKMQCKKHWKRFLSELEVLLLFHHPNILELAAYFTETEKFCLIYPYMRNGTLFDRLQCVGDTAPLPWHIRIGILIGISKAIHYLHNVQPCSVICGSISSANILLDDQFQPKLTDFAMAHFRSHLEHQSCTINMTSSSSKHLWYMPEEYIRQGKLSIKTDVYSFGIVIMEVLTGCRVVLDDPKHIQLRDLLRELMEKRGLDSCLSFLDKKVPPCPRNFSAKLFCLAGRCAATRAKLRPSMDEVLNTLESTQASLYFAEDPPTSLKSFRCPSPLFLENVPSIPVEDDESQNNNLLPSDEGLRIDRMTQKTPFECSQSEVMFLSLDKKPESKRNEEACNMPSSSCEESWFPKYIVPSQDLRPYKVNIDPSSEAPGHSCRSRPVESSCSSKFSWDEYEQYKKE

[7] = molecular target: Serine/threonine-protein kinase LATS1 (Homo sapiens) (UniProt O95835); test: Inhibition of LATS1 (unknown origin) assessed as remaining activity at 1 uM by Kinome scan method relative to control
[8] = molecular target: MAP/microtubule affinity-regulating kinase 3 (Homo sapiens) (UniProt P27448); test: Inhibition of MARK3 (unknown origin) assessed as remaining activity at 1 uM by Kinome scan method relative to control
Sequence of MAP/microtubule affinity-regulating kinase 3 (Homo sapiens) (P27448 whole entry, looked up): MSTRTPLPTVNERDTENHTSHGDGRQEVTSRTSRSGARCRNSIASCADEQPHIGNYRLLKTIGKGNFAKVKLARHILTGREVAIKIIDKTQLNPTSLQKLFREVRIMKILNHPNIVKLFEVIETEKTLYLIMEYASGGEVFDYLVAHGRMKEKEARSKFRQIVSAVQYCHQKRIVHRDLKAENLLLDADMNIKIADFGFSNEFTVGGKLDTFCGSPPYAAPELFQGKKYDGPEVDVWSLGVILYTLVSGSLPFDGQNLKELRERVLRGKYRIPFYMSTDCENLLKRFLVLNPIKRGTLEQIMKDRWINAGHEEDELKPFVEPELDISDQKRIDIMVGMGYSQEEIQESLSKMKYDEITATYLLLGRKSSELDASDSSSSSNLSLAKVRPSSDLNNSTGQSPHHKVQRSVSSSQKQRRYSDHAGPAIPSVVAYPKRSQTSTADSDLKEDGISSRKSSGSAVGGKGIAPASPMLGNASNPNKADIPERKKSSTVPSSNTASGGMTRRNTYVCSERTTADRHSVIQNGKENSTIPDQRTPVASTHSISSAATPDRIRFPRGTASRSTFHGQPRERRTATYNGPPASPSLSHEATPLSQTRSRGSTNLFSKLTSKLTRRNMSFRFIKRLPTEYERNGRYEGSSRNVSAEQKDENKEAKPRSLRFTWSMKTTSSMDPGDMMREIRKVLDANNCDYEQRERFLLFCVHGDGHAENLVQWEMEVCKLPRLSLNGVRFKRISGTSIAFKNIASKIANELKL

[9] = molecular target: Dual specificity mitogen-activated protein kinase kinase 6 (Homo sapiens) (UniProt P52564); test: Inhibition of MEK6 (unknown origin) assessed as remaining activity at 1 uM by Kinome scan method relative to control
Sequence of Dual specificity mitogen-activated protein kinase kinase 6 (Homo sapiens) (P52564 whole entry): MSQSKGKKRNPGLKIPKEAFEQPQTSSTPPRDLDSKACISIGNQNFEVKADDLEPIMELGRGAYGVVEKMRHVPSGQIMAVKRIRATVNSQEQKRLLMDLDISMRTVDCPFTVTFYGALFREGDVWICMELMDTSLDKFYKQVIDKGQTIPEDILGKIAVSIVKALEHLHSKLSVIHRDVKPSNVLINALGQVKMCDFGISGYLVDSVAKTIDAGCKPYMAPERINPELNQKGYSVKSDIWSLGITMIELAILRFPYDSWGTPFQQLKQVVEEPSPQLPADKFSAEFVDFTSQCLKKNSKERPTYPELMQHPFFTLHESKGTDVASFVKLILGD

[10] = molecular target: Myosin-IIIb (Homo sapiens) (UniProt Q8WXR4); test: Inhibition of MYO3B (unknown origin) assessed as remaining activity at 1 uM by Kinome scan method relative to control
Sequence of Myosin-IIIb (Homo sapiens) (Q8WXR4 whole entry): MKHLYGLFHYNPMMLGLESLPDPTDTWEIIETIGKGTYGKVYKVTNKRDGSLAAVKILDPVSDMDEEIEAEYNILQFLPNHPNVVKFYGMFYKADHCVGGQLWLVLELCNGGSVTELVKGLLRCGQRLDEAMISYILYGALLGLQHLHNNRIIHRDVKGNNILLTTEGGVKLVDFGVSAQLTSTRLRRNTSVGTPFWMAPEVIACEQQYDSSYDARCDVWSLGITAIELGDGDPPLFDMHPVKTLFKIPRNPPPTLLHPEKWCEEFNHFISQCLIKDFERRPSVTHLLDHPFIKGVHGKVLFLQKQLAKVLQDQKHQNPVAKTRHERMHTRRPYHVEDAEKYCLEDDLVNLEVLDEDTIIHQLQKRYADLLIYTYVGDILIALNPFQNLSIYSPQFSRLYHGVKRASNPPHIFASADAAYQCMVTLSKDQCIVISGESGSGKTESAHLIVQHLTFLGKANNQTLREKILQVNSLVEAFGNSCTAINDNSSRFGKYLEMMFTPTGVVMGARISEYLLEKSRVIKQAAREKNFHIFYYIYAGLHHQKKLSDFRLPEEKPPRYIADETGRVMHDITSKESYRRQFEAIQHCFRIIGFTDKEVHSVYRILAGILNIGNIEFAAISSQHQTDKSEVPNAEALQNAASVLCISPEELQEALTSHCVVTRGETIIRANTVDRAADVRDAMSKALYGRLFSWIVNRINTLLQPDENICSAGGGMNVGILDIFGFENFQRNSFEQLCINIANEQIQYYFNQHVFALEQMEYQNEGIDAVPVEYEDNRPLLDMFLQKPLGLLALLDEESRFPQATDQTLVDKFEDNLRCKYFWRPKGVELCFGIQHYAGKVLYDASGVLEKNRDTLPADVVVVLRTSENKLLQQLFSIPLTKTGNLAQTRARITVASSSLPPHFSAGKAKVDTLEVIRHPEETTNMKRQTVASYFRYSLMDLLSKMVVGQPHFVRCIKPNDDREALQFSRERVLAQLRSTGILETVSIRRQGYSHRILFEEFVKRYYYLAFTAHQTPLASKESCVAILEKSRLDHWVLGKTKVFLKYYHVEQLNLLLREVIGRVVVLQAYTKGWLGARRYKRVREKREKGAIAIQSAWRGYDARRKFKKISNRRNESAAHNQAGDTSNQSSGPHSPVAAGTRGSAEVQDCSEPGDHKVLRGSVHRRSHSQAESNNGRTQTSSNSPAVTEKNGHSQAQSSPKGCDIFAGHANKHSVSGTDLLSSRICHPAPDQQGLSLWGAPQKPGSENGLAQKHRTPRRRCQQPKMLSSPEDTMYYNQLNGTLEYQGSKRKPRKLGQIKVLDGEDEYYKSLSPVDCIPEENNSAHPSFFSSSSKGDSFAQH

[11] = molecular target: Phosphatidylinositol 5-phosphate 4-kinase type-2 beta (Homo sapiens) (UniProt P78356); test: Inhibition of PIP5K2B (unknown origin) assessed as remaining activity at 1 uM by Kinome scan method relative to control
[12] = molecular target: Serine/threonine-protein kinase PLK1 (Homo sapiens) (UniProt P53350); test: Inhibition of PLK1 (unknown origin) assessed as remaining activity at 1 uM by Kinome scan method relative to control
Sequence of Serine/threonine-protein kinase PLK1 (Homo sapiens) (P53350 whole entry): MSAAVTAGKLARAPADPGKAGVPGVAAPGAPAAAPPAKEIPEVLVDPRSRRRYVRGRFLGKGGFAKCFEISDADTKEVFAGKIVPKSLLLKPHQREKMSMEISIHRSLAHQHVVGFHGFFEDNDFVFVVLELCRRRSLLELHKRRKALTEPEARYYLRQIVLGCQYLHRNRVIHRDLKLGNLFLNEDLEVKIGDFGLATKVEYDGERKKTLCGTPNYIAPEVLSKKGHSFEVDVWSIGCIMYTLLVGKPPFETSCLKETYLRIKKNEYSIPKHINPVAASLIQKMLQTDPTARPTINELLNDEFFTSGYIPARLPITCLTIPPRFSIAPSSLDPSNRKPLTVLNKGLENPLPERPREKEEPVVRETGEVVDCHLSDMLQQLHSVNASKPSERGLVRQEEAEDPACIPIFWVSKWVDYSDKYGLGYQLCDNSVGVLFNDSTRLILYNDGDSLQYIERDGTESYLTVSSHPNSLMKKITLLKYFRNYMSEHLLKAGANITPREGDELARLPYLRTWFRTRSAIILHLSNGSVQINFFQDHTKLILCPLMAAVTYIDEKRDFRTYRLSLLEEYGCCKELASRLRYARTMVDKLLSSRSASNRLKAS

[13] = molecular target: Serine/threonine-protein kinase 35 (Homo sapiens) (UniProt Q8TDR2); test: Inhibition of STK35 (unknown origin) assessed as remaining activity at 1 uM by Kinome scan method relative to control
[14] = molecular target: T2, TGF-beta receptor type-1 (Homo sapiens) (UniProt P36897); test: Inhibition of TGFBR1 (unknown origin) assessed as remaining activity at 1 uM by Kinome scan method relative to control
T2 sequence (whole entry): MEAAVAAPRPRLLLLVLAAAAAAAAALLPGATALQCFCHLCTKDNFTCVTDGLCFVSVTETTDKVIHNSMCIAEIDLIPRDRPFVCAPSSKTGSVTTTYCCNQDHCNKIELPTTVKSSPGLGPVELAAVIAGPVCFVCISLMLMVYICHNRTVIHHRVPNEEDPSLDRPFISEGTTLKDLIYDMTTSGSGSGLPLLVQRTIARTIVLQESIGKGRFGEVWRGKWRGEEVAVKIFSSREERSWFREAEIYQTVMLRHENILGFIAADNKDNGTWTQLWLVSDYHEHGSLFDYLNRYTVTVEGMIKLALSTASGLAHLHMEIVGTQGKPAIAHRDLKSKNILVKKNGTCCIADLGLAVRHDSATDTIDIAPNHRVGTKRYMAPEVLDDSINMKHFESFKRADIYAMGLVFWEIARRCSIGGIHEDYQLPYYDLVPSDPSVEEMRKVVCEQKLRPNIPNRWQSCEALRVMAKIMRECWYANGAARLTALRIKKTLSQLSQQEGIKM

[15] = molecular target: Wee1-like protein kinase (Homo sapiens) (UniProt P30291); test: Inhibition of WEE1 (unknown origin) assessed as remaining activity at 1 uM by Kinome scan method relative to control
Sequence of Wee1-like protein kinase (Homo sapiens) (P30291 whole entry, looked up): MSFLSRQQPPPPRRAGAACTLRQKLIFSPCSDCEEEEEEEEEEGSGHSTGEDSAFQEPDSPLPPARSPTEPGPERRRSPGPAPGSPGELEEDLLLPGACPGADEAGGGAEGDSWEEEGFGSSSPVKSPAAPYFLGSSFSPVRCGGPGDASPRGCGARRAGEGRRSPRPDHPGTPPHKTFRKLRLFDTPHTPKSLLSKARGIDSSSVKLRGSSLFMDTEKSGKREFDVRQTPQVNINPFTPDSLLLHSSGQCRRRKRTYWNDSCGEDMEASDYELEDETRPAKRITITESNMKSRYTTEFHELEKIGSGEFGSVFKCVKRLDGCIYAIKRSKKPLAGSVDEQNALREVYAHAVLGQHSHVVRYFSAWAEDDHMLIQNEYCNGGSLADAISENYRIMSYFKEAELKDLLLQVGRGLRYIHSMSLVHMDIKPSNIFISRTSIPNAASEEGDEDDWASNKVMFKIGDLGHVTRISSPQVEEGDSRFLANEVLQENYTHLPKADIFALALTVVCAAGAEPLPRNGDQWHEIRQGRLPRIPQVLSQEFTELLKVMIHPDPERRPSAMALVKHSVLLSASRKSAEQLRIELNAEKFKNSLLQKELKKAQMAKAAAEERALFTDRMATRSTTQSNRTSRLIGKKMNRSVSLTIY

SMILES | Activity [1] | Activity [2] | Activity [3] | Activity [4] | Activity [5] | Activity [6] | Activity [7] | Activity [8] | Activity [9] | Activity [10] | Activity [11] | Activity [12] | Activity [13] | Activity [14] | Activity [15]
Nc1ccccc1Nc1ccc2c(c1)CCc1ccccc1C2=O | 78% | 97% | 99% | 83% | 93% | 90% | 96% | 82% | 76% | 93% | 86% | 93% | 80% | 90% | 98%
O=C1c2ccc(Nc3ccc(F)cc3F)cc2CCc2ccc(OC[C@H](O)CO)cc21 [Skepinone-L] | 88% | 98% | 93% | 94% | 97% | 97% | 90% | 90% | 82% | 99% | 100% | 88% | 95% | 100% | 100%
